Assay [1] concerns the target KRAS^wt (wild type) protein binding to RBD region fragment of RAF1 protein (Homo sapiens (Human), UniProt P01116). Put plainly: KRAS-RAF1 binding assay (HTRF), KRAS wild type. The conditions noted are these: GST-RAF1-RBD, GTP. How it is done: (§1) GST-RAF1-RBD was purchased from BPS Bioscience; Cat. NO.: 100519; KRAS^G12D was purchased from BPS Bioscience; Cat. NO.: 100623; KRAS^wt was purchased from Reactionbiology; GTP was purchased from Sigma; Cat. NO.: G8877; Mab Anti GST-XL665 was purchased from cisbio; Cat. NO.: 61GSTXLF; Eu-W1024-anti-6×HIS was purchased from PE; Cat. NO.: AD0111; ProxiPlate-384-Plates was purchased from PerkinElmer; Cat. NO.: 6008289; DMSO was purchased from VWR AMRESCO; Cat. NO.: 0231-500ML; microplate reader was purchased from PerkinElmer; Cat. NO.: Envison;
(§2) This experiment is intended to investigate the inhibitory effect of compounds on the binding of KRAS^G12D mutant protein or KRAS^Wt (wild type) protein to fragments of the RBD region fragment of RAF1 protein. A 500×3-fold gradient concentration stock of compound was prepared using DMSO and diluted 50-fold into a 10× stock of compound using reaction buffer. To the reaction wells of an ELISA plate (ProxiPlate-384-Plates), was first added 3 µL of His-KRAS^G12D protein or KRAS^wt protein, then added 1 μL of 200 µM GTP and incubated for 30 min, then added 2 μL of 10× compound or reaction buffer with 2% DMSO (positive control) and incubated for 30 min, then added 4 μL of GST-RAF1-RBD protein or reaction buffer (negative control) and incubated for 15 min, then added […] anti-His antibody and XL665-labeled anti-GST antibody mixed well in advance and incubated for 60 min before reading HTRF signal by microplate reader. The inhibition ratio of compounds on KRAS protein (G12D mutant or wild type) and RAF1 binding was calculated IR (%)=(positive control signal-compound well signal)/(positive control signal-negative control signal)×100% and IC50 values were calculated by fitting compound concentrations and corresponding inhibition ratios using the Prism 8 four-parameter method. […] While the inhibition IC50 values of the compounds on the binding of KRAS^wt (wild type) protein to the RBD region fragment of RAF1 protein was more than 40 nM or 100 nM, or more than 500 nM, or even more than 1 μM or 2 μM.
On the technique in general: TR-FRET usually uses a lanthanide donor and a delayed reading to cut background.

Assay [2] concerns the target KRAS^G12D mutant protein binding to RBD region fragment of RAF1 protein (Homo sapiens (Human), UniProt P01116, G12D). Put plainly: KRAS-RAF1 binding assay (HTRF), KRAS G12D. As to conditions: His-KRAS^G12D, GST-RAF1-RBD, GTP. How it is done:
as §1, §2

The subject of assay [3] is p-ERK in AGS cells (KRAS^G12D mutation). Put plainly: Cell p-ERK detection assay. It counts as cell-based, human. As to conditions: 3 h incubation, HTRF. How it is done: AGS was purchased from ATCC; Cat. NO.: CRL-1739; F12K was purchased from Gibco; Cat. NO.: 21127-022; FBS was purchased from Gibco; Cat. NO.: 10099-141C; Trypsin (containing EDTA) was purchased from Gibco; Cat. NO.: 25200-072; DMSO was purchased from VWRAMRESCO; Cat. NO.: 0231-500ML; 96-well cell culture plate was purchased from Corning; Cat. NO.: 3599; An white background opaque 96-well plate was purchased from Cisbio; Cat. NO.: 66PL96025; Advance ERK phospho-T202/Y204 kit was purchased from Cisbio; Cat. NO.: 64AERPEH; Cell Counters were purchased from CHEMOMETEC; Model NO.: NC-200; microplate reader was purchased from PerkinElmer; Model NO.: Envison.
AGS is an endogenous human gastric adenocarcinoma cell line containing KRAS^G12D mutation, cultured in F12K+10% FBS medium. On the first day of the experiment, cells in the logarithmic growth phase were taken, digested with trypsin (containing EDTA), collected, and counted, and approximately 20,000 cells/well were inoculated in 96-well cell culture plates and cultured overnight in a 5% CO2 incubator. A 1000×3.16-fold gradient concentration stock of the compound was prepared using DMSO, diluted 200-fold into a 5× compound stock using the medium described above, and a 5× compound stock was added to each cell culture well the day after cell inoculating at a final concentration of 1× and a DMSO content of 0.1%. DMSO was used as an experimental control. After the compound was added and the incubation was continued for 3 h, the medium in the culture wells was removed, […] of cell lysis solution (from Advance ERK phospho-T202/Y204 kit, the same below) was added to each well, mixed well and incubated for 30 min, then […] of the mixed solution was transferred to a white background opaque 96-well plate, and another well was taken as a blank well with adding […] of cell lysis solution. After the transfer, […] of p-ERK HTRF antibody mixed solution (from Advance ERK phospho-T202/Y204 kit) was added to each well, after incubation for 4 h, HTRF fluorescence value (RLU) was read by a microplate reader, and p-ERK level inhibition ratio of the compound was calculated IR (%)=(RLU control-RLU compound)/(RLU control-RLU blank)×100%, compound concentration and corresponding cell p-ERK level inhibition ratio were fitted using Prism 8 four-parameter method, and IC50 value was calculated.

The subject of assay [4] is AsPC-1 cells (KRAS^G12D mutation). The assay can be described thus: Cell proliferation inhibition assay (3D, CellTiter-Glo), AsPC-1. It counts as cell-based, human. As to conditions: 3D cell model, 5 days. The source says:
(§3) AsPC-1 was purchased from ATCC; Cat. NO.: CRL-1682; AGS was purchased from ATCC; Cat. NO.: CRL-1739; RPMI1640 was purchased from Gibco; Cat. NO.: 11875-093 2235123; F12K was purchased from Gibco; Cat. NO.: 21127-022; FBS was purchased from Gibco; Cat. NO.: 10099-141C; Trypsin (containing EDTA) was purchased from Gibco; Cat. NO.: 25200-072; CellTiter Glo-3D was purchased from Progema; Cat. NO.: G9683; 384-well sphere plates were purchased from coming; Cat. NO.: 3830; White background opaque 384-well plates were purchased from coming; Cat. NO.: 3570; Cell Counters were purchased from CHEMOMETEC; Model NO.: NC-200; microplate reader was purchased from PerkinElmer; Model NO.: Envison;
(§4) AsPC-1 is an endogenous human pancreatic cancer cell containing KRAS^G12D mutation, which is cultured in RPMI-1640 medium containing 10% FBS; AGS human gastric cancer cell line containing KRAS^G12D mutation, cultured in F-12K medium containing 10% FBS. Cells in the logarithmic growth phase were taken, digested with trypsin (containing EDTA), harvested and counted, and inoculated with 800 AsPC-1 cells/well or 400 AGS cells/well, respectively, in 384-well sphere plates and cultured overnight at 5% C02 to establish a 3D cell model. A 3.16-fold gradient concentration stock solution of 1000× compound was prepared using DMSO, diluted 100-fold into a 10× compound stock solution using media, and a 10× compound stock solution was added to each cell culture well the day after cell inoculating at a final concentration of 1× with a DMSO content of 0.1%. DMSO was used as an experimental control (control) and culture medium as a blank control (blank). After the addition of compounds, the cells were cultured for 5 days. […] CellTiter-Glo working solution was added to each well, mixed well, and incubated for 30 min. After standing for 30 min at room temperature, 40 μl of the mixed solution was transferred to a white background opaque 384-well plate. Luminescence chemiluminescence value was read on a microplate reader, and the cell proliferation inhibition ratio was calculated, IR (%)=(RLU control-RLU compound)/(RLU control-RLU blank)×100%. XLFit four-parameter method was used to fit the gradient dilution concentration of compounds and the corresponding cell proliferation inhibition ratio, and the IC50 value was calculated. […] Results for exemplary of the example compounds are shown in Table 3 below. - indicates not detected.

Assay [5] deals with AGS cells (KRAS^G12D mutation). Put plainly: Cell proliferation inhibition assay (3D, CellTiter-Glo), AGS. Format: cell-based, human. As to conditions: 3D cell model, 5 days.
Source text: as §3, §4

Among the data in patent US20240270758A1, “PYRIDINO-OR PYRIMIDO-CYCLIC COMPOUND, PREPARATION METHOD THEREFOR AND MEDICAL USE THEREOF” (Genfleet Therapeutics (Shanghai) Inc., priority 2021, published 2024) are IC50 values, retold here.

For orientation: IC50 means the concentration at which inhibition is half-maximal. A lower IC50 goes with inhibition by little substance.

Sequence of KRAS^wt (wild type) protein binding to RBD region fragment of RAF1 protein (P01116-2 other isoform, or with tags, fused parts or gaps): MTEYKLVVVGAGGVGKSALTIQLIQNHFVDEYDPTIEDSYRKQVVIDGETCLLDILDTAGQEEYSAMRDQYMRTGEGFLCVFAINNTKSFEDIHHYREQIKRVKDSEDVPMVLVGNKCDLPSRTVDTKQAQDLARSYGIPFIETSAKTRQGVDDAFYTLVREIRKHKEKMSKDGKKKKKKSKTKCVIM
Sequence of KRAS^G12D mutant protein binding to RBD region fragment of RAF1 protein (P01116-2 other isoform, or with tags, fused parts or gaps G12D): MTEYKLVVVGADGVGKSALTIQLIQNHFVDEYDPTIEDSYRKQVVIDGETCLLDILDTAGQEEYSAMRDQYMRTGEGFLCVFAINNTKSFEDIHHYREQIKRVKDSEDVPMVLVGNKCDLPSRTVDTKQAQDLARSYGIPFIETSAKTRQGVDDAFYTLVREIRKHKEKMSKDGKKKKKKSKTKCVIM

Consider `C#Cc1cccc2cc(O)cc(-c3ncc4c(N5CC6CCC(C5)C6N)nc(OCC56CCCN5CCC6)nc4c3F)c12` (stereo not shown) [Example Z1], for which the IC50 was determined as 2610 nM in assay [1] and 256 nM in assay [2].
Regarding `C#Cc1c(Cl)ccc2cc(O)cc(-c3ncc4c(N5C[C@H]6CC[C@@H](C5)N6)nc(OCC56CC(=C)CN5CC(=C)C6)nc4c3F)c12` [Example Z216, 4-(4-((1R,5S)-3,8-diazabicyclo[3.2.1]octan-3-yl)-2-((2,6-dimethylenetetrahydro-1H-pyrrolizin-7a(5H)-yl)methoxy)-8-fluoropyrido[4,3-d]pyrimidin-7-yl)-6-chloro-5-ethynylnaphthalen-2-ol], the half-inhibitory concentration (IC50) in assay [3] (Homo sapiens, AGS, 3 h) is 1.22 nM; in assay [4] (Homo sapiens, ASPC1, 120 h), 43.7 nM; in assay [5] (Homo sapiens, AGS, 120 h), 3.14 nM.
Regarding `C#Cc1c(F)ccc2cc(O)cc(-c3ncc4c(N5C[C@H]6CC[C@@H](C5)N6)nc(OCC56CC(=C)CN5CC(=C(F)F)C6)nc4c3F)c12` (stereo partly shown) [Example Z215], the IC50 in assay [3] turned out to be 1.19 nM; in assay [4] it was 49.4 nM; in assay [5], 5.13 nM.
Take `C#Cc1c(F)ccc2cc(O)cc(-c3ncc4c(N5C[C@H]6CC[C@@H](C5)N6)nc(OCC56CC(=C)CN5[C@H]5C[C@H]5C6)nc4c3F)c12` (stereo partly drawn) [Example Z210, 4-(4-((1R,5S)-3,8-diazabicyclo[3.2.1]octan-3-yl)-8-fluoro-2-(((1aS,6aS)-4-methylenehexahydrocyclopropa[b]pyrrolizin-5a(3H)-yl)methoxy)pyrido[4,3-d]pyrimidin-7-yl)-5-ethynyl-6-fluoronaphthalen-2-ol]: the half-maximal inhibitory concentration (IC50) was 16.6 nM in assay [3] (Homo sapiens, AGS, 3 h); 176 nM in assay [4] (Homo sapiens, ASPC1, 120 h); 26 nM in assay [5] (Homo sapiens, AGS, 120 h).
Regarding `C#Cc1cccc2cccc(-c3ncc4c(N5C[C@H]6CC[C@@H](C5)N6)nc(OCC56CC(=C)CN5CC(=C)C6)nc4c3F)c12` [Example Z190, 4-((1R,5S)-3,8-diazabicyclo[3.2.1]octan-3-yl)-2-((2,6-dimethylenetetrahydro-1H-pyrrolizin-7a(5H)-yl)methoxy)-7-(8-ethynylnaphthalen-1-yl)-8-fluoropyrido[4,3-d]pyrimidine], the IC50 in assay [3] (Homo sapiens, AGS, 3 h) came to 105 nM; in assay [4] (Homo sapiens, ASPC1, 120 h), 485 nM; in assay [5] (Homo sapiens, AGS, 120 h), 204 nM.
In the same order, the values of `C#Cc1c(F)ccc2cc(O)cc(-c3ncc4c(N5C[C@H]6CC[C@@H](C5)N6)nc(OC[C@@]56CCCN5CC(=C)C6)nc4c3F)c12` [Example Z12, 4-(4-((1R,5S)-3,8-diazabicyclo[3.2.1]octan-3-yl)-8-fluoro-2-(((S)-2-methylenetetrahydro-1H-pyrrolizin-7a(5H)-yl)methoxy)pyrido[4,3-d]pyrimidin-7-yl)-5-ethynyl-6-fluoronaphthalen-2-ol] are 1.83 nM, 12.5 nM and 2.8 nM.
Turning to `C#Cc1cccc2cc(O)cc(-c3ncc4c(N5C[C@H]6CC[C@@H](C5)N6)nc(OCC56CC(=C)CN5CCC65CC5)nc4c3F)c12` (stereo partly drawn) [Example Z106, 4-(4-((1R,5S)-3,8-diazabicyclo[3.2.1]octan-3-yl)-8-fluoro-2-((6′-methylenetetrahydrospiro[cyclopropane-1,1′-pyrrolizin]-7a′(5′H)-yl)methoxy)pyrido[4,3-d]pyrimidin-7-yl)-5-ethynylnaphthalen-2-ol], the IC50 in assay [3] (Homo sapiens, AGS, 3 h) is 1.36 nM; in assay [4] (Homo sapiens, ASPC1, 120 h) it was 14.7 nM; in assay [5] (Homo sapiens, AGS, 120 h) it was 4.6 nM.
In the case of `C#Cc1cccc2cc(O)cc(-c3ncc4c(N5CC6CCC(C5)C6N)nc(OCC56CCCN5CCC6)nc4c3F)c12` (stereo not shown) [Example Z2], the IC50 in assay [1] was determined as 788 nM; in assay [2], 186 nM.
Take `C#Cc1cccc2cc(N)c(F)c(-c3ncc4c(N5C[C@H]6CC[C@@H](C5)N6)nc(OCC56CC(=C)CN5CC(=C)C6)nc4c3F)c12` [Example Z213, 4-(4-((1R,5S)-3,8-diazabicyclo[3.2.1]octan-3-yl)-2-((2,6-dimethylenetetrahydro-1H-pyrrolizin-7a(5H)-yl)methoxy)-8-fluoropyrido[4,3-d]pyrimidin-7-yl)-5-ethynyl-3-fluoronaphthalen-2-amine]: the IC50 in assay [3] (Homo sapiens, AGS, 3 h) amounted to 62.9 nM; in assay [4] (Homo sapiens, ASPC1, 120 h), 335 nM; in assay [5] (Homo sapiens, AGS, 120 h), 57.5 nM.
With `C#Cc1cccc2cc(O)cc(-c3ncc4c(N5C[C@H]6CC[C@@H](C5)N6)nc(OCC56CCCN5CC(=C)C6)nc4c3F)c12` (stereo partly drawn) [Example Z8, 4-(4-((1R,5S)-3,8-diazabicyclo[3.2.1]octan-3-yl)-8-fluoro-2-((2-methylenetetrahydro-1H-pyrrolizin-7a(5H)-yl)methoxy)pyrido[4,3-d]pyrimidin-7-yl)-5-ethynylnaphthalen-2-ol], the IC50 in assay [3] (Homo sapiens, AGS, 3 h) was found to be 2.78 nM; in assay [4] (Homo sapiens, ASPC1, 120 h), 57.7 nM; in assay [5] (Homo sapiens, AGS, 120 h) it was 5.3 nM.
